{"source": "patent US9375450B2", "about": "“Vaginal tissue rejuvenation compositions and methods” (priority 2011, dated 2016)", "key": {"[1]": {"system": "ovariectomized (OVX) Sprague-Dawley rats", "assay": "Vaginal histology and histomorphometry after 2 weeks vaginal suppositories", "type": "in vivo, rat", "conditions": "vaginal suppositories 2 weeks", "experimental": "Ten to 12-weeks old female ovariectomized (OVX) Sprague-Dawley rats were utilized for the experiments. The animals were acclimatized to the environmental conditions before starting the experiment. The animals were housed individually and were allowed free access to water and rodent food. […] The suppositories were prepared according to the fusion method, using a polypeg suppository base ([…]., USA). […] Using a microwave, the suppository base was melted in a small beaker for 3 min and then transferred and kept into a water bath at a temperature of 55° C. The proper amount of above reagent was added to the liquefied base and meticulously crushed with a smooth rounded-end glass rod for about 20 min to make the solution to be even and clear. A pipette tip was used to suck some amount of solution and push it into a plastic tube with a diameter of 3.5 mm, and the tube was immediately left on the flat surface of an ice bucket. The suppository turned to white in color when it was solid. The moulded suppository was then pushed out of the tube using a round rod. […] After 30 min of cooling at room temperature, the suppositories were stored at 4° C. in a closed chamber until use. They were left to reach room temperature before use. The day after the last treatment the rats were overnight fasted and then sacrificed. Macroscopic measurement (genital hiatus, vaginal length) were taken and the vagina was dissected out carefully to avoid any injury to the vagina. The mid section of the vagina was utilized for histology (H and E stain, Masson's trichrome stain) and immunofluorescence and the rest of the vagina was used for RNA extraction and RT-PCR. […] For each animal, a 4 μm-thick paraffin section was cut and stained with haematoxylineosin and with Masson's trichrome stain for morphological examination. […] The cornification was determined by the presence of a keratin layer on the vaginal epithelium. Measurements of the different vaginal layers were performed on the fifth segment of the vagina, which is approximately halfway between the middle region and the portio vaginalis uteri. […] Images were captured with a color digital camera and quantified using ImageJ software was used. […] The thickness of the lamina propria was obtained by deducting the thickness of the epithelium and muscularis from total vaginal thickness."}, "[2]": {"system": "rat vaginal Collagen I, Collagen III, Collagen V protein", "assay": "Immunofluorescence of vaginal collagen protein expression after 2 weeks vaginal suppositories", "type": "in vivo", "conditions": "OVX rats, vaginal suppositories 2 weeks, mean±SD", "experimental": "Ten to 12-weeks old female ovariectomized (OVX) Sprague-Dawley rats were utilized for the experiments. The animals were acclimatized to the environmental conditions before starting the experiment. The animals were housed individually and were allowed free access to water and rodent food. […] The suppositories were prepared according to the fusion method, using a polypeg suppository base ([…]., USA). […] Using a microwave, the suppository base was melted in a small beaker for 3 min and then transferred and kept into a water bath at a temperature of 55° C. The proper amount of above reagent was added to the liquefied base and meticulously crushed with a smooth rounded-end glass rod for about 20 min to make the solution to be even and clear. A pipette tip was used to suck some amount of solution and push it into a plastic tube with a diameter of 3.5 mm, and the tube was immediately left on the flat surface of an ice bucket. The suppository turned to white in color when it was solid. The moulded suppository was then pushed out of the tube using a round rod. […] After 30 min of cooling at room temperature, the suppositories were stored at 4° C. in a closed chamber until use. They were left to reach room temperature before use. The day after the last treatment the rats were overnight fasted and then sacrificed. Macroscopic measurement (genital hiatus, vaginal length) were taken and the vagina was dissected out carefully to avoid any injury to the vagina. The mid section of the vagina was utilized for histology (H and E stain, Masson's trichrome stain) and immunofluorescence and the rest of the vagina was used for RNA extraction and RT-PCR. Samples were incubated with three different antibodies, collagen I, III and anti-actin or collagen I and V and anti-actin. Frozen tissues samples were cut into sections of 6 μm and fixed for 10 min with acetone, followed by five washes of phosphate-buffered saline (PBS). […] After that, sections were incubated with the secondary antibody for one hour in the dark, at room temperature, followed by five washes of PBS. […] Alexa Fluor 405 Goat Anti-Mouse IgG (1:400) (Invitrogen); Cy3-AffiniPure Goat Anti-Mouse IgM (1:400) (Jackson ImmunoResearch Laboratories, West Grove, Pa.); Alexa Fluor 647 (1;200) phalloidin (Invitrogen). […] Four images were obtained per section. Images were capture with an Orca II-ERG 12 bitt CCD camera in a Zeiss Apotome microscope with a 20× objective. The data was analyzed using Matamorph version 7.7.4 software. Results are represented as mean pixel intensity ratios per square area."}, "[3]": {"system": "ovariectomized (OVX) Sprague-Dawley rats", "assay": "Macroscopic measurements (genital hiatus, vaginal length) after 2 weeks vaginal suppositories", "type": "in vivo, rat", "conditions": "vaginal suppositories 2 weeks (20 μM zinc sulfate, 10 nM GW501516, 0.01% estradiol), mean±SD", "experimental": "Ten to 12-weeks old female ovariectomized (OVX) Sprague-Dawley rats were utilized for the experiments. The animals were acclimatized to the environmental conditions before starting the experiment. The animals were housed individually and were allowed free access to water and rodent food. […] The suppositories were prepared according to the fusion method, using a polypeg suppository base ([…]., USA). […] Using a microwave, the suppository base was melted in a small beaker for 3 min and then transferred and kept into a water bath at a temperature of 55° C. The proper amount of above reagent was added to the liquefied base and meticulously crushed with a smooth rounded-end glass rod for about 20 min to make the solution to be even and clear. A pipette tip was used to suck some amount of solution and push it into a plastic tube with a diameter of 3.5 mm, and the tube was immediately left on the flat surface of an ice bucket. The suppository turned to white in color when it was solid. The moulded suppository was then pushed out of the tube using a round rod. […] After 30 min of cooling at room temperature, the suppositories were stored at 4° C. in a closed chamber until use. They were left to reach room temperature before use. The day after the last treatment the rats were overnight fasted and then sacrificed. Macroscopic measurement (genital hiatus, vaginal length) were taken and the vagina was dissected out carefully to avoid any injury to the vagina. The mid section of the vagina was utilized for histology (H and E stain, Masson's trichrome stain) and immunofluorescence and the rest of the vagina was used for RNA extraction and RT-PCR."}, "[4]": {"system": "rat vaginal Col1a1, Col3a1, Col5a1 mRNA", "assay": "qRT-PCR of vaginal collagen gene expression after 2 weeks vaginal suppositories", "type": "in vivo", "conditions": "OVX rats, vaginal suppositories 2 weeks, mean±SD", "excerpt": "Ten to 12-weeks old female ovariectomized (OVX) Sprague-Dawley rats were utilized for the experiments. The animals were acclimatized to the environmental conditions before starting the experiment. The animals were housed individually and were allowed free access to water and rodent food. Two weeks after the ovariectomy rats (n=36) were divided into five groups: control (receiving placebo suppositories, n=8), Zinc (receiving zinc sulfate containing suppositories, n=8), GW (receiving GW501516 containing suppositories, n=8), Zinc with GW (receiving Zinc with GW 501516 containing suppositories, n=8) and Estradiol (receiving estradiol containing suppositories, n=4).\nThe suppositories were prepared according to the fusion method, using a polypeg suppository base (MEDISCA, N.Y., USA). […] Using a microwave, the suppository base was melted in a small beaker for 3 min and then transferred and kept into a water bath at a temperature of 55° C. The proper amount of above reagent was added to the liquefied base and meticulously crushed with a smooth rounded-end glass rod for about 20 min to make the solution to be even and clear. A pipette tip was used to suck some amount of solution and push it into a plastic tube with a diameter of 3.5 mm, and the tube was immediately left on the flat surface of an ice bucket. The suppository turned to white in color when it was solid. The moulded suppository was then pushed out of the tube using a round rod. The moulded suppository was cut using a razor blade to a length of 1.2 cm each, which was calibrated to equal a volume of 50±5 μl per each suppository. After 30 min of cooling at room temperature, the suppositories were stored at 4° C. in a closed chamber until use. They were left to reach room temperature before use.\nTotal RNA was isolated from 20 mg of vaginal rat tissue in each experimental rat group using the RNeasy Mini kit (Qiagen) according to the manufacturer's specifications. For each total RNA preparation, DNase digestion was performed to remove contaminating genomic DNA. Total RNA samples from each tissue were quantified and evaluated for RNA integrity by the Agilent Bioanalyzer 2100 (Applied Biosystems, Foster City Calif., USA). Following RNA extraction, cDNA was reverse transcribed from ˜500 ng of each total RNA preparation using the qScript cDNA synthesis kit (Quanta Biosciences, Gaithersburg Md., USA). Finally, cDNA samples were used to perform gene expression analysis by qRT-PCR using SYBR Green technology on the RealPlex EP Mastercycler (Eppendorf, Germany) of five genes with known roles in vaginal tissue reconstruction: Collagen IaI (col 1a1), Collagen IIIaI (col 3a1), Collagen VaI (col 5a1), Elastin (eln), Tensin I (tns-1). Glyceraldehyde-3 Phosphate Dehydrogenase (gapdh) was used as a positive control to normalize the expression of each gene. Each qRT-PCR reaction was run in triplicate using Perfecta SYBR Green Supermix (Quanta Biosciences, Gaithersburg Md., USA) in 25 μL reaction volumes using a final concentration of 300 nM forward and reverse primers. For each of the genes analyzed in this study, primers were designed using Primer-BLAST software (NCBI) and synthesized by IDT Technologies (San Diego, Calif.)."}}, "data": [{"smiles": "C[C@]12CC[C@@H]3c4ccc(O)cc4CC[C@H]3[C@@H]1CC[C@@H]2O", "note": "[Estradiol]", "values": [{"measurement": "vaginal epithelial thickness", "setting": "[1]; mean±SD, placebo 57±18", "value": "140±54", "unit": "μm"}, {"measurement": "vaginal muscularis thickness", "setting": "[1]; mean±SD, placebo 121±44", "value": "124±53", "unit": "μm"}, {"measurement": "vaginal lamina propria thickness", "setting": "[1]; mean±SD, placebo 179±71", "value": "152±80", "unit": "μm"}, {"measurement": "vaginal thickness (all three layers of the vagina)", "setting": "[1]; mean±SD, placebo 358±86", "value": "417±82", "unit": "μm"}, {"measurement": "vaginal epithelial cornification rate", "setting": "[1]; placebo 0%", "value": 100, "unit": "%"}, {"measurement": "lamina propria collagen fiber compactness", "setting": "[1]; scale 0-5 (0=loose, 5=tight), mean±SD, placebo 4.5±0.6", "value": "1.6±0.6", "unit": "relative units"}, {"measurement": "ratio of vaginal Collagen I to Collagen III protein expression", "setting": "[2]; placebo 1.16±0.2", "value": "1.08±0.2", "unit": "relative units"}, {"measurement": "ratio of vaginal Collagen I to Collagen V protein expression", "setting": "[2]; placebo 1.28±0.3", "value": "1.74±0.5", "unit": "relative units"}, {"measurement": "genital hiatus (distance between the external urethral meatus and the mid anus)", "setting": "[3]; placebo 12.6±1.1", "value": "16.0±1.4", "unit": "mm"}, {"measurement": "vaginal length", "setting": "[3]; placebo 14.1±1.1", "value": "18.7±1.5", "unit": "mm"}, {"measurement": "ratio of vaginal Col1a1 to Col3a1 mRNA expression", "setting": "[4]; placebo 0.78±0.2", "value": "0.70±0.4", "unit": "relative units"}, {"measurement": "ratio of vaginal Col1a1 to Col5a1 mRNA expression", "setting": "[4]; placebo 4.3±1.9", "value": "5.3±1.2", "unit": "relative units"}]}]}
